Assay results reported in ChEMBL document CHEMBL3507680, “University of Dundee, Gates Library screen for HepG2 cell viability”.

Assay: Human HepG2 cell viability assay in 384 well format
Format: toxicity, cell-based
Parameters: dose 125 nL, time 70.5 hour; concentration not given beside the values
Details: HepG2 cells, read-out: Inhibition

Row | Compound | cytotoxicity at 70.5 h
1 | O=C(c1nnn(-c2ccc(C(F)(F)F)cc2)n1)N1CCC(O)CC1 | -2.52%
2 | O=C1CN(C(=O)c2nnn(-c3ccc(C(F)(F)F)cc3)n2)CCN1 | -14.4%
3 | COCCNC(=O)NC1(c2nc(C)no2)CCCCC1 | -0.559%
4 | COc1cccc(CNC(=O)NC2(c3nc(C)no3)CCCCC2)c1 | 13.3%
5 | O=C(NC1(c2nc(C3CC3)no2)CCCCC1)c1cccnc1O | 3.05%
6 | COc1nn(C)cc1C(=O)N1CCC(c2nnc(-c3ccsc3)o2)CC1 | -6.31%
7 | Cc1nnc(C2CCN(C(=O)c3ccc4[nH]ccc4c3)CC2)s1 | -5.35%
8 | CCCC(=O)N1CCC(c2nn(C)c(=O)n2-c2ccccc2)CC1 | -10.4%
9 | CCSc1ccccc1C(=O)NCCn1nc(C(F)(F)F)n(C)c1=O | -4.82%
10 | Cn1c(C(F)(F)F)nn(CCNC(=O)c2ccccn2)c1=O | -7.74%
11 | COCCNC(=O)NCCn1nc(C(F)(F)F)n(C)c1=O | -4.7%
12 | O=C(CN1CCC(c2nnc(C(F)(F)F)o2)CC1)Nc1cccc(Cl)c1 | 19.3%
13 | CNC(=O)c1nnn(-c2ccccc2F)c1-c1ccccn1 | 0.41%
14 | CN1CCN(c2cc(NC(=O)c3cnccn3)ncn2)CC1 | 0.507%
15 | O=C(Cc1ccccc1Cl)Nc1cc(N2CCCC2)ncn1 | -0.171%
16 | Cc1ccccc1NC(=O)Nc1cc(N2CCCC2)ncn1 | 10.8%
17 | CC1CCN(c2cc(NC(=O)C3CC3)ncn2)CC1 | 0.806%
18 | Cc1cc(=O)n(CCNS(=O)(=O)c2ccccc2)cn1 | -1.2%
19 | O=C(NCCn1cnc(C2CCCC2)cc1=O)NCc1cccs1 | -7.11%
20 | Cc1ncn(CCNC(=O)Nc2ccccc2)c(=O)c1C | 21.4%
21 | Cn1nc(N2CCCC(C(=O)Nc3nc4ccccc4s3)C2)ccc1=O (configuration not stated) | 1.88%
22 | CCOc1cc(NC(=O)C2CC(=O)N(c3cccc(OC)c3)C2)ncn1 (configuration not stated) | -2.94%
23 | O=C(c1ccc(F)cc1F)N(CC(F)(F)F)C1CCOCC1 | -4.08%

Row | Compound | cytotoxicity at 70.5 h
24 | Cn1nc(C(=O)N2CC(Oc3nc4c(Cl)cccc4s3)C2)ccc1=O | -8.11%
25 | COc1cccc2sc(OC3CN(C(=O)C4=COCCO4)C3)nc12 | -8.14%
26 | COCC(C)(O)CNC(=O)c1cc(-c2cc(OC)ccc2OC)nn1C (configuration not stated) | 6.52%
27 | O=C(NCCOc1ccccc1)NCC(O)c1cccs1 (configuration not stated) | -11.8%
28 | CCOCC(=O)NCCc1nc(C2CC2)cc(C(F)(F)F)n1 | -4.83%
29 | CC(=O)NCc1cc(-c2cccs2)n(C2CCCC2)n1 | -2.19%
30 | COCCNC(=O)NCc1cc(-c2cccs2)n(C2CCCC2)n1 | -8.68%
31 | COCCNC(=O)NCc1cc(-c2ccncc2)n(C2CCCC2)n1 | -13.6%
32 | O=C1CCSCC(C(=O)NCc2nc(-c3ccccc3)no2)N1 (configuration not stated) | -11.9%
33 | Cc1noc(CNC(=O)C2CSCCC(=O)N2)n1 (configuration not stated) | -12.9%
34 | Cn1nnc2c(N3CC(C(=O)NCCC4=CCCCC4)C3)ncnc21 | -18.5%
35 | Cn1nnc2c(N3CC(C(=O)NCc4cccs4)C3)ncnc21 | -1.73%
36 | O=C(O)CC(CC(=O)NCc1ccsc1)c1cccs1 (configuration not stated) | -5.7%
37 | Cn1cccc1CN(C(=O)CC(CC(=O)O)c1cccs1)C1CC1 (configuration not stated) | -9.4%
38 | Cc1ccc(S(=O)(=O)NCC(O)c2ccoc2)s1 (configuration not stated) | -12.5%
39 | O=S(=O)(NCC(O)c1ccoc1)c1ccc(Cl)s1 (configuration not stated) | 23%
40 | O=S(=O)(NCC(O)c1ccoc1)c1ccc(Br)s1 (configuration not stated) | -1.32%
41 | O=C(NCc1cccs1)NCC(O)c1ccoc1 (configuration not stated) | -3.33%
42 | O=C(Cc1ccc(F)cc1)NCCc1ccoc1 | -5.69%
43 | CCOc1ccccc1NC(=O)NCCc1ccoc1 | 12.2%
44 | CC(C)(C)NC(=O)N1CCC(Oc2ccc(C(F)(F)F)cn2)CC1 | -6.24%
45 | O=C(c1cnccn1)N1CCC(Oc2ncccc2Cl)CC1 | 4.06%
46 | O=C(c1cc(C2CC2)on1)N1CCC(Oc2ncccc2Cl)CC1 | -6.96%

Row | Compound | cytotoxicity at 70.5 h
47 | N#Cc1cccnc1OC1CCN(C(=O)c2cc(C3CC3)on2)CC1 | -6.54%
48 | N#Cc1cccnc1OC1CCN(S(=O)(=O)c2ccc(Br)cc2)CC1 | -12.9%
49 | Cn1nc(C(=O)N2CCC(Oc3ccc(C#N)cn3)CC2)ccc1=O | -11%
50 | CN1CCCC(C(=O)N2CCC(Oc3ccc(C#N)cn3)CC2)C1 (configuration not stated) | -5.58%
51 | N#Cc1ccc(C(=O)N2CCC(Oc3ccc(C#N)cn3)CC2)cc1 | -3.02%
52 | O=C(Cn1ccc2ccccc21)N1CCC(Oc2cnccn2)CC1 | -7%
53 | O=C(Cn1cccn1)N1CCC(Oc2cnccn2)CC1 | -6.46%
54 | CN(C)S(=O)(=O)N1CCC(Oc2cccnn2)CC1 | 0.601%
55 | Cc1ccc(S(=O)(=O)N2CCC(Oc3cccnn3)CC2)c(C)c1 | -8.17%
56 | COC(=O)c1ccc(S(=O)(=O)N2CCC(Oc3cccnn3)CC2)cc1 | -8.01%
57 | O=C(Cn1ccc2ccccc21)N1CCC(Oc2ncccc2Br)CC1 | -3.13%
58 | Cc1cccc(OC2CCN(C(=O)c3ccc4c(c3)OCO4)CC2)n1 | -7.71%
59 | Cc1cccc(OC2CCN(S(=O)(=O)Cc3cccc(F)c3)CC2)n1 | -1.18%
60 | COC(=O)c1sccc1S(=O)(=O)N1CCC(Oc2cccc(C)n2)CC1 | -9.62%
61 | O=C(COc1ccc(-n2cccn2)nn1)NC1CCCCC1 | 0.192%
62 | O=C(Nc1cnc(Oc2ccccc2F)nc1)C1CC1 | -3.71%
63 | Cc1ccc(C)c(S(=O)(=O)NCCNc2ccc(-n3cccc3)nn2)c1 | -7.55%
64 | CC(=O)N1CCN(c2cc(-n3cccc3)ncn2)CC1 | -7.94%
65 | CS(=O)(=O)N1CCCC12CCCN(C(=O)c1ccc3c(c1)OCO3)C2 (configuration not stated) | -7.38%
66 | COCC(=O)N1CCC2(CC(=O)N(c3cccc(F)c3)C2)C1 (configuration not stated) | -9.01%
67 | Cc1noc(C)c1CN1C[C@@H]2OCCN(Cc3cnn(C)c3)[C@@H]2C1 | -21.6%
68 | CN1CCN(C(=O)c2n[nH]c3c2CCN(Cc2nccs2)C3)CC1 | -11.9%
69 | COCC1c2nnn(CC3CC3)c2CCN1C(=O)N1CCCC1 (configuration not stated) | 14.1%

Row | Compound | cytotoxicity at 70.5 h
70 | COCC1c2nnn(CC3CC3)c2CCN1C(=O)c1cccn1C (configuration not stated) | 9.68%
71 | CC(C)NC(=O)N1CCCn2cnc(CN3CCCC3=O)c2C1 | 27.9%
72 | Cc1noc(C2CCC3(CCN(C(=O)c4cnccn4)CC3)O2)n1 (configuration not stated) | 3.99%
73 | Cc1noc(C2CCC3(CCN(C(=O)C4CCOCC4)CC3)O2)n1 (configuration not stated) | 2.64%
74 | CCS(=O)(=O)N1CCc2cc(C(=O)N(C)C)c(NCC3CC3)nc2CC1 | 0.785%
75 | Cc1occc1C(=O)N1CCCn2cnc(CN3CCCC3=O)c2C1 | -0.779%
76 | CN(C)C(=O)N1CCC2(CC1)COCCN(c1ncccn1)C2 | -3.19%
77 | Cc1cc(C(=O)N2CCc3ncnc(-c4cnn(C)c4)c3CC2)no1 | 2.85%
78 | Cc1ccccc1C(=O)N1CCCn2cnc(CN3CCCC3=O)c2C1 | -4.3%
79 | CC(C)NC(=O)N1CCC2(CC1)COc1ccccc1S(=O)(=O)N(C)C2 | 0.573%
80 | CCOCC1CN(S(=O)(=O)C2CC2)Cc2ncn(CC3CC3)c21 (configuration not stated) | -4.92%
81 | Cc1ccc(C(=O)N2CCc3ncnc(-c4cnn(C)c4)c3CC2)o1 | -7.08%
82 | COCC1CN(S(=O)(=O)C2CC2)Cc2ncn(CC3CC3)c21 (configuration not stated) | -1.47%
83 | O=C1CCCN1Cc1ncn2c1CN(C(=O)Cc1ccccc1)CCC2 | 0.61%
84 | Cc1noc(C2CCC3(CCN(C(=O)c4cnn(C)c4)CC3)O2)n1 (configuration not stated) | -10.3%
85 | CN(C)CC(=O)N1CCC2(CC1)COc1ccccc1S(=O)(=O)N(C)C2 | 0.316%
86 | COCC(=O)N1CCC2(CC1)COc1ccccc1S(=O)(=O)N(C)C2 | 0.748%
87 | COCC1CN(C(=O)CS(C)(=O)=O)Cc2ncn(CC3CC3)c21 (configuration not stated) | 1.88%
88 | Cc1cccc(S(=O)(=O)N2CCCC3(CCCN3S(C)(=O)=O)C2)c1 (configuration not stated) | 3.22%
89 | COCc1ncn2c1CN(C(=O)Nc1ccccc1)CC2 | -4.33%
90 | COCC(=O)N1CCC2(COCc3cnc(NCc4ccco4)nc32)C1 (configuration not stated) | -2.26%
91 | Cc1nccc([C@H]2C[C@@H]3CCN(S(=O)(=O)C4CC4)C[C@H]3O2)n1 | 0.462%
92 | Cc1nccc([C@@H]2C[C@@H]3CCN(S(=O)(=O)C4CC4)C[C@H]3O2)n1 | -1.95%

Row | Compound | cytotoxicity at 70.5 h
93 | CS(=O)(=O)N1CCCC12CCCN(S(=O)(=O)c1cccc(F)c1)C2 (configuration not stated) | 2.16%
94 | CNC(=O)[C@@]12CCC3(CCNCC3)[C@@H]1CN(S(C)(=O)=O)C2 | 4.08%
95 | O=C(c1cocn1)N1CC[C@H]2OCC[C@@]2(COc2ncccc2F)C1 | -15.1%
96 | COCC1CN(S(=O)(=O)N(C)C)Cc2ncn(CC3CC3)c21 (configuration not stated) | 2.72%
97 | CCOCC(=O)N1CCOCC2(CCN(c3ncccn3)C2)C1 (configuration not stated) | 2.44%
98 | O=C(NCC1CC1)[C@@H]1CC[C@@H]2[C@@H](CCN2Cc2ccc(F)c(F)c2)O1 | 2.42%
99 | COc1ccc(CN2CC[C@H]3O[C@@H](C(=O)NCC4CC4)CC[C@H]32)cc1 | -8.24%
100 | Cc1ccc(CN2Cc3nnn(C)c3C(COCc3ccccc3)C2)s1 (configuration not stated) | 4.74%
101 | COCc1ncn2c1CN(C(=O)c1ccc3ccccc3n1)CC2 | 6.36%
102 | CS(=O)(=O)NC1CC2(CCN(CCF)CC2)Oc2ccccc21 (configuration not stated) | -4.96%
103 | CN(C)C(=O)COC[C@]12COC[C@H]1CN(Cc1ccco1)C2 | 0.692%
104 | O=C1CC2(CCN(Cc3cccnc3)C2)CN1c1cccc(F)c1 (configuration not stated) | -16.5%
105 | Cc1ccc2c(n1)N(CCn1cccn1)CCN(CC1CC1)C2 | -3.95%
106 | Cc1ccc2c(n1)N(CCn1cccn1)CCN(C1CCOCC1)C2 | -5.52%
107 | Cc1ccc(CN2Cc3nnn(C)c3C(COCc3ccccn3)C2)s1 (configuration not stated) | -0.991%
108 | COCCN1CCc2cc(C(=O)NC(C)C)c(NCC3CC3)nc2CC1 | -0.245%
109 | CCn1nnc2c1C(COCCN(C)C)CN(Cc1ccc(C)s1)C2 (configuration not stated) | 3.05%
110 | CC(C)CCN1CCc2cc(C(=O)N(C)C)c(NCC3CC3)nc2CC1 | 5.09%
111 | COCCO[C@H]1CCN(Cc2ccsc2)[C@H]1Cc1cccnc1 | 24.4%
112 | CCn1ncc2c1C(COC)CN(Cc1cccnc1)C2 (configuration not stated) | 21.4%
